The test system of test [1] is Hepatitis C virus. Description: Anti-viral activity test (HCVcc, Type 2a), JFH 5a-Rluc luciferase in Huh7.5.1 cell line. The following applies: for inhibition: Huh-7.5.1, luciferase activity, negative control = 100%, Huh7.5.1 cells infected with JFH 5a-Rluc, read-out: HCV inhibition rate %; for EC50: Huh-7.5.1, read-out: EC50 (concentration of compound to inhibit the 50% of viral growth). In kind it is cell-based. The procedure: The inhibitory effect of the oxazolidinone compounds on HCV replicon and NS5A were HCV was tested by the method disclosed in KR-A 10-2010-0007937 or US-A 2010/0215696.
The cell lines containing replicon were prepared by preparing JFH 5a-Rluc (plasmid expressing Renilla luciferase reporter protein) RNA according to the method disclosed in the documents, introducing the JFH 5a-Rluc RNA into host cell lines (Huh7.5.1 cell line) by electroporation and infecting the host cell lines (Zhnog et al., Proc. Natl. Acad. Sci. USA, 102, 9294-9299). After the infected cell lines were cultured with or without the treatment of the oxazolidinone compound, the luciferase activity was detected to obtain the inhibitory effect of […] replicon replication. EC50) of the compound was determined by performing the test at various concentrations of the compound.
The compounds Example 1 to 17 were tested for anti-viral activity on Hepatitis C virus, according to the method of KR10-2010-0007937 (published on Jan. 22, 2010) or US2010/0215696 (published on Aug. 26, 2010).
The cell lines containing replicon were prepared by preparing JFH 5a-Rluc (plasmid expressing Renilla luciferase reporter protein) RNA according to the method disclosed in the documents, introducing the JFH 5a-Rluc RNA into host cell lines (Huh7.5.1 cell line) by electroporation and infecting the host cell lines (Zhnog et al., Proc. Natl. Acad. Sci. USA, 102, 9294-9299). After the infected cell lines were cultured with or without the treatment of 1 mM of the oxazolidinone compounds of Examples 1 to 17, the host cell lines were obtained on 1, 2 and 3 days after treatment, and the luciferase activity produced from the host cells was measured.
The luciferase activity of negative control which was not treated with the oxazolidinone compound is set to 100%. At various amounts of the oxazolidinone compounds, the luciferase activities were calculated based on the negative control to obtain the inhibition rate of HCV (%). The positive control was Interferon (INF)(Sigma, SRP4595).

In test [2] the test system is Hepatitis C virus. The description is as above. The format is cell-based, Hepatitis C virus (HCVcc. The following applies: for inhibition at 0.001 µM: Hepatitis C virus, Huh-7.5.1, read-out: inhibition rate; for remnant HCV amount: treated at a concentration of 1 nM.

Turning to `COC(=O)N[C@H](C(=O)NC[C@H]1CN(c2ccc(-c3ccc(-c4cnc([C@@H]5CCCN5C(C)=O)[nH]4)cc3)c(F)c2)C(=O)O1)C(C)C` [Example 17, Methyl ((S)-1-((((S)-3-(4′-(2-((S)-1-acetylpyrrolidin-2-yl)-1H-imidazol-5-yl)-2-fluoro-[1,1′-biphenyl]-4-yl)-2-oxooxazolidin-5-yl)methyl)amino)-3-methyl-1-oxobutan-2-yl)carbamate], in the test with Hepatitis C virus [1], the inhibition was determined as 38.1%.
`COC(=O)N[C@H](C(=O)NC[C@H]1CN(c2ccc(-c3ccc(-c4cnc([C@@H]5CCCN5C(=O)[C@@H](NC(=O)OC)C(C)C)[nH]4)cc3)c(F)c2)C(=O)O1)C(C)C` [Example 15, Methyl ((S)-1-((((S)-3-(2-fluoro-4′-(2-((S)-1-((methoxycarbonyl)-L-valyl)pyrrolidin-2-yl)-1H-imidazol-5-yl)-[1,1′-biphenyl]-4-yl)-2-oxooxazolidin-5-yl)methyl)amino)-3-methyl-1-oxobutan-2-yl)carbamate]: in the test on Hepatitis C virus [1], the inhibition is 99.8% and the EC50 is 1 nM. Besides, in the test on Hepatitis C virus [2], the inhibition at 0.001 µM came to 44.3% and the “remnant HCV amount” value is 55.7%.
For the compound `COCc1cn(C[C@H]2CN(c3ccc(-c4ccc(-c5cnc([C@@H]6CCCN6C(=O)[C@@H](NC(=O)OC)C(C)C)[nH]5)cc4)c(F)c3)C(=O)O2)nn1` [Example 7, Methyl ((S)-1-((S)-2-(5-(2′-fluoro-4′-((R)-5-((4-(methoxymethyl)-1H-1,2,3-triazol-1-yl)methyl)-2-oxooxazolidin-3-yl)-[1,1′-biphenyl]-4-yl)-1H-imidazol-2-yl)pyrrolidin-1-yl)-3-methyl-1-oxobutan-2-yl)carbamate], in the test with Hepatitis C virus [1], the inhibition stood at 83.3%.
With `CC(=O)N1CCC[C@H]1c1ncc(-c2ccc(-c3ccc(N4C[C@H](Cn5ccnn5)OC4=O)cc3F)cc2)[nH]1` [Example 2, (R)-5-((1H-1,2,3-Triazol-1-yl)methyl)-3-(4′-(2-((S)-1-acetylpyrrolidin-2-yl)-1H-imidazol-5-yl)-2-fluoro-[1,1′-biphenyl]-4-yl)oxazolidin-2-one], the inhibition with Hepatitis C virus [1] is 32%.
Consider `COC(=O)N[C@H](C(=O)N1CCC[C@H]1c1ncc(-c2ccc(-c3ccc(N4C[C@H](Cn5ccnn5)OC4=O)cc3F)cc2)[nH]1)c1ccccc1` [Example 4, methyl ((S)-2-((S)-2-(5-(4′-((R)-5-((1H-1,2,3-triazol-1-yl)methyl)-2-oxooxazolidin-3-yl)-2′-fluoro-[1,1′-biphenyl]-4-yl)-1H-imidazol-2-yl)pyrrolidin-1-yl)-2-oxo-1-phenylethyl)carbamate], for which, in the test with Hepatitis C virus [1], the inhibition was found to be 95.2%.
Regarding `COC(=O)N[C@H](C(=O)N1CCC[C@H]1c1ncc(-c2ccc(-c3ccc(N4C[C@H](Cn5cc(CCO)nn5)OC4=O)cc3F)cc2)[nH]1)C(C)C` [Example 6, Methyl ((S)-1-((S)-2-(5-(2′-fluoro-4′-((R)-5-((4-(2-hydroxyethyl)-1H-1,2,3-triazol-1-yl)methyl)-2-oxooxazolidin-3-yl)-[1,1′-biphenyl]-4-yl)-1H-imidazol-2-yl)pyrrolidin-1-yl)-3-methyl-1-oxobutan-2-yl)carbamate], in the test with Hepatitis C virus [1], the inhibition was determined as 84.4%.
In the case of `COC(=O)N[C@H](C(=O)NC[C@H]1CN(c2ccc(-c3ccc(-c4cnc([C@@H]5CCCN5C(=O)OC(C)(C)C)[nH]4)cc3)c(F)c2)C(=O)O1)C(C)C` [Example 16, tert-Butyl (S)-2-(5-(2′-fluoro-4′-((S)-5-(((S)-2-((methoxycarbonyl)amino)-3-methylbutanamido)methyl)-2-oxooxazolidin-3-yl)-[1,1-biphenyl]-4-yl)-1H-imidazol-2-yl)pyrrolidine-1-carboxylate], the inhibition with Hepatitis C virus [1] is 58%.
The same measure, in the same setting: as for `COC(=O)N[C@H](C(=O)N1CCC[C@H]1c1ncc(-c2ccc(-c3ccc(N4C[C@H](Cn5cc(COC(C)=O)nn5)OC4=O)cc3F)cc2)[nH]1)C(C)C` [Example 8, 1-(((R)-3-(2-Fluoro-4′-(2-((S)-1-((methoxycarbonyl)-L-valyl)pyrrolidin-2-yl)-1H-imidazol-5-yl)-[1,1′-biphenyl]-4-yl)-2-oxooxazolidin-5-yl)methyl)-1H-1,2,3-triazol-4-yl)methyl acetate], the figure is 79.8%.
As to `COC(=O)N[C@H](C(=O)N1CCC[C@H]1c1ncc(-c2ccc(-c3ccc(N4C[C@H](CNC(C)=O)OC4=O)cc3F)cc2)[nH]1)C(C)C` [Example 12, Methyl ((S)-1-((S)-2-(5-(4′-((S)-5-(acetamidomethyl)-2-oxooxazolidin-3-yl)-2′-fluoro-[1,1′-biphenyl]-4-yl)-1H-imidazol-2-yl)pyrrolidin-1-yl)-3-methyl-1-oxobutan-2-yl)carbamate], in the test on Hepatitis C virus [1], the inhibition came out at 99.8%. In the test on Hepatitis C virus [2], the inhibition at 0.001 µM stood at 27% and the “remnant HCV amount” value turned out to be 73%.
Regarding `CC(=O)NC[C@H]1CN(c2ccc(-c3ccc(-c4cnc([C@@H]5CCCN5C(C)=O)[nH]4)cc3)c(F)c2)C(=O)O1` [Example 14, N—(((S)-3-(4′-(2-((S)-1-acetylpyrrolidin-2-yl)-H-imidazol-5-yl)-2-fluoro-[1,1′-biphenyl]-4-yl)-2-oxooxazolidin-5-yl)methyl)acetamide], in the test with Hepatitis C virus [1], the inhibition is 28%.
For the compound `COC(=O)N[C@H](C(=O)N1CCC[C@H]1c1ncc(-c2ccc(-c3ccc(N4C[C@H](Cn5ccnn5)OC4=O)cc3F)cc2)[nH]1)C(C)C` [Example 3, Methyl ((S)-1-((S)-2-(5-(4′-((R)-5-((1H-1,2,3-triazol-1-yl)methyl)-2-oxooxazolidin-3-yl)-2′-fluoro-[1,1′-biphenyl]-4-yl)-1H-imidazol-2-yl)pyrrolidin-1-yl)-3-methyl-1-oxobutan-2-yl)carbamate], in the test with Hepatitis C virus [1], the inhibition was 99.8% and the EC50 was 0.98 nM. In the test on Hepatitis C virus [2], the inhibition at 0.001 µM came out at 78.9% and the “remnant HCV amount” value was 21.1%.
For `COC(=O)N[C@H](C(=O)N1CCC[C@H]1c1ncc(-c2ccc(-c3ccc(N4C[C@H](Cn5cc(-c6ccccc6)nn5)OC4=O)cc3F)cc2)[nH]1)C(C)C` [Example 11, Methyl ((S)-1-((S)-2-(5-(2′-fluoro-4′-((R)-2-oxo-5-((4-phenyl-1H-1,2,3-triazol-1-yl)methyl)oxazolidin-3-yl)-[1,1′-biphenyl]-4-yl)-1H-imidazol-2-yl)pyrrolidin-1-yl)-3-methyl-1-oxobutan-2-yl)carbamate], in the test on Hepatitis C virus [1], the inhibition turned out to be 96.7%. Also, in the test with Hepatitis C virus [2], the inhibition at 0.001 µM was 95.2% and the “remnant HCV amount” value came to 6.8%.
Consider `COC(=O)N[C@H](C(=O)N1CCC[C@H]1c1ncc(-c2ccc(-c3ccc(N4C[C@H](Cn5cc(CO)nn5)OC4=O)cc3F)cc2)[nH]1)C(C)C` [Example 5, Methyl ((S)-1-((S)-2-(5-(2′-fluoro-4′-((R)-5-((4-(hydroxymethyl)-1H-1,2,3-triazol-1-yl)methyl)-2-oxooxazolidin-3-yl)-[1,1′-biphenyl]-4-yl)-1H-imidazol-2-yl)pyrrolidin-1-yl)-3-methyl-1-oxobutan-2-yl)carbamate], for which the inhibition with Hepatitis C virus [1] amounted to 95.8%.
Same read-out and setting: as for `COC(=O)N[C@H](C(=O)N1CCC[C@H]1c1ncc(-c2ccc(-c3ccc(N4C[C@H](Cn5cc(CNC(C)=O)nn5)OC4=O)cc3F)cc2)[nH]1)C(C)C` [Example 10, Methyl ((S)-1-((S)-2-(5-(4′-((R)-5-((4-(acetamidomethyl)-1H-1,2,3-triazol-1-yl)methyl)-2-oxooxazolidin-3-yl)-2′-fluoro-[1,1′-biphenyl]-4-yl)-1H-imidazol-2-yl)pyrrolidin-1-yl)-3-methyl-1-oxobutan-2-yl)carbamate], the figure is 32.8%; as for `CC(=O)NC[C@H]1CN(c2ccc(-c3ccc(-c4cnc([C@@H]5CCCN5C(=O)OC(C)(C)C)[nH]4)cc3)c(F)c2)C(=O)O1` [Example 13, tert-Butyl (S)-2-(5-(4′-((S)-5-(acetamidomethyl)-2-oxooxazolidin-3-yl)-2′-fluoro-[1,1′-biphenyl]-4-yl)-1H-imidazol-2-yl)pyrrolidine-1-carboxylate], 46.2%; as for `CC(C)(C)OC(=O)N1CCC[C@H]1c1ncc(-c2ccc(-c3ccc(N4C[C@H](Cn5ccnn5)OC4=O)cc3F)cc2)[nH]1` [Example 1, tert-Butyl(S)-2-(5-(4′-((R)-5-((1H-1,2,3-triazol-1-yl)methyl)-2-oxooxazolidin-3-yl)-2′-fluoro-[1,1′-biphenyl]-4-yl)-1H-imidazol-2-yl)pyrrolidine-1-carboxylate], 31.7%.

The term inhibition denotes the share of the control response that was lost under treatment.

The values are drawn from patent US9422274B2, “Oxazolidinone derivatives and composition for preventing or treating hepatitis C containing the same” (KOREA INSTITUTE OF SCIENCE AND TECHNOLOGY, priority 2013, dated 2016).
